Test results as given in patent US8309768B2, “FTY720-derived anticancer agents” (The Ohio State University Research Foundation, priority 2010, dated 2012).
pIC50: −log10 of the molar value.

Key:
primary CLL cells = assay: Cytotoxicity in primary CLL cells (Annexin V / propidium iodide flow cytometry); assay type: cell-based
Experimental: Antitumor and other effects of OSU-2S were also evaluated in Chronic Lymphoid Leukemia cells. OSU-2S cytotoxicity in primary CLL cells is measured at 24 hrs by staining for Annexin V and Propidium Iodide using Flow cytometer. The number of live cells (stained negative for both the stains) were normalized to untreated control. Fludarabine metabolite (2-Fara) was used as a control.
The effect of OSU-2S was evaluated in 3 different CLL cell lines (WROTH<THOU, and RAHUE) over a 24 hour period, as shown in FIG. 9. Time dependent OSU-2S cytotoxicity in primary CLL cells was measured by treating the cells with OSU-2S (8 μM) for indicated period of time and washed and cultured in the fresh media for 24 hr. The number of live cells stained negative for Annexin V and Propidium Iodide were measured at 24 hrs by using Flowcytometer and normalized to untreated control.
CD37 activation and OSU-2S produced enhanced cytotoxicity in CLL cells, as detected by flow cytometer at 24 hr. in CLL cells treated with CD37 antibody and cross linker or OSU-2S 8 μM or with both are stained for Annexin V and propidium iodide at 24 hr.

[1] = system: Hep3B, Huh7, and PLC5 cells; assay: ROS production by flow cytometry with DCFDA; assay type: cell-based; conditions: 1 h of treatment
Experimental: Flow cytometry. For assessment of apoptosis, treated cells were stained with Annexin V-Alexa Fluor 488 and propidium iodide according to the vendor's protocols (Molecular Probes). For caspase-3 activity, cells were incubated with the fluorogenic caspase-3 substrate (Ac-DMQD)-2-Rh110 for 20 min. ROS production was detected using the fluorescence probe 5-(and-6)-carboxy-2′,7′-dichlorodihydrofluorescein diacetate (DCFDA) as described. Hung et al., Cancer Res., 68, 1204-1212 (2008). Data were analyzed by ModFitLT V3.0 software program.

CLL cells [2] = assay: Western blot analysis in CLL cells (PARP, caspase 3, caspase 9); assay type: cell-based
Source text: Western blot analysis as carried out to further observe the effects of OSU-2S in CLL cells. […] OSU-2S in CLL activates caspase, as evidenced by cleavage of poly (ADP-ribose) polymerase (PARP). Jurkat cell with or without UV irradiation were included as controls. […] OSU-2S was also shown to activate caspase 3 in CLL cells. […] Finally, OSU-2S activates caspase 9 in CLL.

PLC5 cells = assay: MTT cell viability assay, PLC5; assay type: cell-based; conditions: 24 h of treatment
Experimental: Cell lines, culture and reagents. The HCC cell lines Hep3B, PLC5 and Huh7, as well as primary nonmalignant human hepatocytes were used in this study. Cancer cells were cultured in Dulbecco's Modified Eagle's medium (DMEM) supplemented with 10% fetal bovine serum (FBS). Hepatocytes were maintained in defined Hepatocyte Culture Medium. […] Various polyclonal and monoclonal antibodies were used for western blotting, immunocytochemical, and flow cytometric analyses.
(§1) Cell viability assay. Cell viability was assessed by 3-(4,5-dimethylthiazol-2-yl)-2,5-diphenyl-2H-tetrazolium bromide (MTT) assays in six replicates. Cells were seeded (4,000 cells/well; 96-well plate) for 24 h and treated with test agents in 5% FBS-supplemented DMEM. After treatment, cells were incubated in medium containing 0.5 mg/ml MTT (37° C., 2 h). Reduced MTT was dissolved in DMSO (200 μL/well) and absorbances measured at 570 nm.

[3] = system: orthotopic Hep3B-luc tumors; assay: Orthotopic Hep3B-luc xenograft tumor model; assay type: in vivo, athymic nude mice; set-up: dose or concentration left out as unconfirmed; conditions: end of treatment (42 days)
Source text: Orthotopic tumors were established by direct intrahepatic injection of luciferase-expressing Hep3B (Hep3B-luc) cells as described. Omar et al., Mol Pharmacol, 76, 957-968 (2009). The establishment and growth of tumors were monitored by bioluminescent imaging using the IVIS™ imaging system (Xenogen, Alameda, Calif.). […] All animal use described in this manuscript was done in accordance with protocols approved by The Ohio State University Institutional Animal Care and Use Committee.

[4] = biological target: T1, PP2A (Serine/Threonine Phosphatase 2A) (Homo sapiens, UniProt P67775); assay: PP2A functional enzymatic assay (malachite green) in primary CLL cells; assay type: cell-based; conditions: 24 hrs, OSU-2S 8 μM, untreated about 0.07
T1 construct: endogenous in cells; host or cells: primary CLL cells; Ramos cells
Experimental: The ability of OSU-2S to induce PP2A (Serine/Threonine Phosphatase 2A) activity in primary CLL cells was measured at 24 hrs by a functional enzymatic assay. Lysates made from OSU-2S 8 μM treated cells are used to immunoprecipitate PP2Ac which was then used as an enzyme to cleave the specific phosphor-peptide substrate in the functional assay. The cleaved free phosphates were measured by adding malachite green detection solutions and measuring the absorbance at A650 nm. Ramos cells were also included, and FTY720 was used as the control.

[5] = system: SphK2 siRNA-transfected Huh7 cells; assay: Cell viability after siRNA-mediated knockdown of SphK2; assay type: cell-based; conditions: SphK2 siRNA vs scrambled
Experimental: as §1
Small interfering (si)RNA- or short hairpin (sh)RNA-mediated knockdown. PLC5 and Huh7 cells were transfected with the following siRNA duplexes or shRNA plasmids according to the manufacturer's protocol for the knockdown of target genes: siRNA: glutathione S-transferase (GST)-π and sphingosine kinase 2 (SphK2); shRNA constructs: pKD-PKCδ-v2. Stable clones were isolated from Huh7 cells transfected with shRNA plasmids were further subjected to stable clone isolation by geneticin. Immunoblotting was performed to confirm the knockdowns.

[6] = system: lymphocytes in peripheral blood; assay: In vivo evaluation of T-lymphocyte homing; conditions: CD2F1 mice, i.p., 6 h
Experimental: In vivo evaluation of T-lymphocyte homing. […] Six hours later, animals were sacrificed, and peripheral blood mononuclear cells were prepared as described. Dragun et al., Kidney Int 65, 1076-1083 (2004). Cells were stained with FITC-labeled rat anti-mouse CD3 molecular complex and PE-labeled rat anti-mouse CD45RA (4° C., in darkness, 30 min), and analyzed by flow cytometry.

[7] = biological target: T2, S1P1 receptor-overexpressing Huh7 cells (Homo sapiens, UniProt P21453); assay: Immunocytochemical analysis of S1P1 receptor internalization; assay type: cell-based; conditions: immunocytochemistry
T2 construct: expressed in transfected cells
Experimental: Immunocytochemistry. Immunocytochemical analysis of S1P1 internalization and PKCδ nuclear translocation were performed as described. […] Briefly, treated cells were washed, fixed with 4% paraformaldehyde, and permeabilized with 0.1% Triton X-100. After blocking with 2% FBS, cells were incubated with rabbit anti-S1P1 or rabbit anti-PKCδ antibodies (1:200 dilution, 4° C., 24 h), followed by Alexa Fluor 488-conjugated goat anti-rabbit IgG (room temperature, 1 h). Nuclei were counterstained with a 4,6-diamidino-2-phenylindole (DAPI)-containing mounting medium (Vector Laboratories, Burlingame, Calif.).

CLL cells [8] = assay: ROS induction in CLL cells (dihydroethidium staining); assay type: cell-based; conditions: 8 μM, untreated about 40%
Experimental: The induction of Reactive Oxygen Species (ROS) in CLL cells by OSU-2S was detected by staining OSU-2S 8 μM treated CLL cells with dihyroethidium. The ROS in the cells oxidizes DHE to ethidium staining the nucleus with a bright red fluorescence detected by flow cytometer. A hydrogen peroxide solution was used as a control.

T2 sequence (P21453 whole entry): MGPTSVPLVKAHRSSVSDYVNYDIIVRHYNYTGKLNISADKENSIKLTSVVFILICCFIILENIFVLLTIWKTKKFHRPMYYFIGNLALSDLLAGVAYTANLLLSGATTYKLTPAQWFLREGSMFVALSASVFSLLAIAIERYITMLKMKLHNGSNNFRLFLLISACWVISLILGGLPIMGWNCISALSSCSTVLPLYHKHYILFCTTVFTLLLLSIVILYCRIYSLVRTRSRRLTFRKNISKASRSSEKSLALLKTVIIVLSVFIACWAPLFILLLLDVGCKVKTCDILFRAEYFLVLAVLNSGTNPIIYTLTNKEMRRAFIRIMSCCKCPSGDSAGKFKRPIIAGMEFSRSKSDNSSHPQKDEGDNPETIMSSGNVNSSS
T1 sequence (P67775 whole entry): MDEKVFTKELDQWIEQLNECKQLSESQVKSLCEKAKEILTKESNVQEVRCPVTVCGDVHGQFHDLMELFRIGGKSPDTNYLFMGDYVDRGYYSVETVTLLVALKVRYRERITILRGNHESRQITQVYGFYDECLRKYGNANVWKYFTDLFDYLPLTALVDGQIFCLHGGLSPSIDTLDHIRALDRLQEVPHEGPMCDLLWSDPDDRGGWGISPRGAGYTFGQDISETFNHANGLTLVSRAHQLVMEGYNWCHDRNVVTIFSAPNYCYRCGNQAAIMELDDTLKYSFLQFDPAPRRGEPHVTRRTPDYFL

CCC[C@@](N)(CO)CCc1ccc(OCCCCCC(C)C)cc1 [OSU-2S, (S)-2-amino-2-(4-[(6-methylheptyl)-oxy]phenethyl)pentan-1-ol]
time dependent cytotoxicity (primary CLL cells; 8 μM for indicated time, washed, cultured 24 hr, 3 CLL cell lines): decreased number live cells over time | live cells (negative for Annexin V and propidium iodide) (primary CLL cells; CLL cells, 24 hr, OSU-2S 8 μM and/or CD37 antibody and cross linker): about 30% | growth (live cells normalized to untreated control) (primary CLL cells; primary CLL cells, 24 hrs, OSU-2S at 8 μM): about 30% | ROS production [1]: to a greater extent than FTY720 | caspase 3 activation (CLL cells [2]; 24 and 48 hours, products at about 16-18 kD): caspase 3 cleaved products | PARP cleavage (CLL cells [2]; 24 and 48 hours, vs untreated): higher levels of PARP | caspase 9 activation (CLL cells [2]; products at about 30-34 kD): caspase 9 cleaved products | pIC50 (PLC5 cells): 5.46 | reduction in bioluminescent intensity [3]: 80% | PP2A activity, absorbance at A650 nm [4]: about 0.20 | effect of SphK2 knockdown on antiproliferative activity (sensitizing effect) [5]: not observed | effect on number of T lymphocytes in peripheral blood ([6]; 5 mg/kg): modest decrease | effect on number of T lymphocytes in peripheral blood ([6]; 1 and 2 mg/kg): no appreciable effect | changes in circulating B lymphocytes [6]: no comparable changes | S1P1 receptor internalization and clustering in the cytoplasm [7]: failed to show any appreciable effect | DHE positive cell % (CLL cells [8]): about 70%
